Experimental data taken from US20250114486A1, “MARKED FATTY ACID DERIVATIVE, PRECURSOR COMPOUND THEREOF, AND USE THEREOF IN CONTRAST AGENT” (BEIJING NORMAL UNIVERSITY, priority 2022, published 2025).
“And” between values parts separate entries of the source, which are not always exact repeats. Identical values can stand only once.

Key:
[1] = In vivo biodistribution of radioactive ^99mTc complexes in female SD rats; set-up: species or system female Sprague-Dawley (SD) rats; details: for Biodistribution: Large Intestine / Biodistribution: Small Intestine / Biodistribution: Stomach: unit % ID
Protocol: (§1) Female SD rats (180-220 g, n=3) were fasted for 12 h before the experiment, and the purified radioactive 99mTc complexes 78-81 were prepared into physiological saline (containing 10% ethanol) solutions of about 250-350 μCi/mL. 200 μL of the above solution was injected into the tail vein of female SD rats, and the rats were killed by cervical dislocation at five time points, 15, 30, 60, 120 and 240 min after the tail vein injection. The blood, brain, heart, liver, spleen, lung, kidney, muscle, bone, large intestine, small intestine, stomach and tail were collected, weighed and counted, and the count distribution of each tissue and organ was calculated (unit: % ID/g, the unit of large intestine, small intestine and stomach is % ID), and the data are the mean±standard deviation of three mice in each phase. At the same time, 200 μL of the above solution was diluted to 20 mL, which was used as the % ID without deducting the tail count.

fatty acid β-oxidation = test: TMZ (trimetazidine hydrochloride) blocking experiment, biodistribution in female SD rats; assay type: in vivo
Protocol: as §1
Trimetazidine hydrochloride (TMZ) is a widely used anti-anginal drug and an inhibitor of fatty acid β-oxidation. […] Therefore, in order to investigate the sensitivity of radioactive ^99mTc complex 80 to fatty acid β-oxidation, we first performed a TMZ blocking experiment from the perspective of biodistribution. Among them, SD rats killed 60 min after injection were divided into two groups: one group of fasting female SD rats were injected with saline (0.2 mL) solution containing TMZ (40 mg/kg) and our radiotracer ^99mTc complex 80 (TMZ administration group), and the other group of fasting female SD rats were injected with radioactive ^99mTc complex 80 only (control group). The absolute myocardial uptake of the control SD rats and the TMZ-administered SD rats was compared 60 min after the tail vein injection of our radiotracer 80 (corresponding to the time point of the peak absolute myocardial uptake). […] The effect of TMZ administration on the metabolic fate of the radioactive ^99mTc complex 80 will also be discussed in Example 4 below.

[2] = Metabolism study in female SD rats (modified Folch extraction, ^99mTc gamma counting); assay type: in vivo
Protocol: Female SD rats (180-220 g, fasted overnight) were injected with […] radioactive ^99mTc complex 80 (200-300 μCi, dissolved in 10% EtOH saline, 1000 μL) (n=3) through the tail vein. Heart, intestine and liver samples were collected at 60 min and 120 min after injection. Among them, the SD rats killed at 60 min post-injection were divided into two groups: one group of fasting female SD rats were injected with saline (0.2 mL) solution containing fatty acid β-oxidation inhibitor TMZ (40 mg/kg) and our radiotracer (TMZ-administratied group), and the other group of fasting female SD rats were injected with radioactive ^99mTc complex 80 only (control group). Heart, intestine or liver samples were homogenized in a mixture of CHCl3—CH3OH in a volume ratio of 2:1, then 40% urea and 5% sulfuric acid aqueous solution were added, and they were sonicated and centrifuged at 2000 rpm for 10 min (a modified Folch extraction method). The ^99mTc gamma counting were performed on the resulting aqueous phase, organic phase and residual tissue particle phase (n=3).
In addition, the residual tissue particles obtained from the heart samples were measured for radioactivity counts, then heated and dissolved in 1 mol/L NaOH solution at 90° C. for 1 h, cooled, and then treated with 50% trichloroacetic acid (TCA). After centrifugation at 2000 rpm for 10 min, the obtained supernatant and precipitate were ^99mTc gamma counting.

[3] = female SD rats, 60 min, blocked by trimetazidine hydrochloride (TMZ 40 mg/kg)
[4] = female SD rats, 60 min, blocked by trimetazidine hydrochloride (TMZ 40 mg/kg), unit % ID
[5] = heart in TMZ-administrated SD rats (TMZ 40 mg/kg), 60 min
[6] = heart in control SD rats, 60 min, percentage of total ^99mTc radioactivity counts
[7] = heart in control SD rats, 120 min
[8] = intestine in control SD rats, 60 min
[9] = intestine in control SD rats, 120 min
[10] = liver in control SD rats, 60 min
[11] = liver in control SD rats, 120 min

Biodistribution: Large Intestine ([1]; 120 min post-injection): 22.13 ± 2.94 % ID
Biodistribution: Small Intestine ([1]; 120 min post-injection): 5.02 ± 0.82 % ID
Biodistribution: Stomach ([1]; 120 min post-injection): 0.55 ± 0.08 % ID
Biodistribution: Blood ([1]; 240 min post-injection): 0.007 ± 0.001 ID %/g
Biodistribution: Bone ([1]; 240 min post-injection): 0.043 ± 0.003 ID %/g
Biodistribution: Brain ([1]; 240 min post-injection): 0.007 ± 0.002 ID %/g
Biodistribution: Heart ([1]; 240 min post-injection): 0.93 ± 0.09 ID %/g
Biodistribution: Kidney ([1]; 240 min post-injection): 0.49 ± 0.03 ID %/g
Biodistribution: Liver ([1]; 240 min post-injection): 0.17 ± 0.03 ID %/g
Biodistribution: Lungs ([1]; 240 min post-injection): 0.06 ± 0.01 ID %/g
Biodistribution: Muscle ([1]; 240 min post-injection): 0.22 ± 0.02 ID %/g
Biodistribution: Spleen ([1]; 240 min post-injection): 0.06 ± 0.01 ID %/g
Heart-to-Blood ratio ([1]; 240 min post-injection): 141.90±22.86
Heart-to-Liver ratio ([1]; 240 min post-injection): 5.56±1.30
Heart-to-Lungs ratio ([1]; 240 min post-injection): 15.00±3.18
absolute myocardial uptake value ([1]; 240 min post-injection): 0.93±0.09 % ID/g
Biodistribution: Large Intestine ([1]; 240 min post-injection): 22.41 ± 1.13 % ID
Biodistribution: Small Intestine ([1]; 240 min post-injection): 7.36 ± 0.64 % ID
Biodistribution: Stomach ([1]; 240 min post-injection): 0.20 ± 0.02 % ID
absolute myocardial uptake peak value ([1]; peak at 60 min post-injection): 2.06±0.06 % ID/g
decrease of absolute myocardial uptake value ([1]; within 60-240 min post-injection): 54.9%
Biodistribution: Blood (fatty acid β-oxidation; [3]): 0.024 ± 0.003 ID %/g
Biodistribution: Bone (fatty acid β-oxidation; [3]): 0.07 ± 0.01 ID %/g
Biodistribution: Brain (fatty acid β-oxidation; [3]): 0.009 ± 0.005 ID %/g
Biodistribution: Heart (fatty acid β-oxidation; [3]): 1.01 ± 0.19 ID %/g
Biodistribution: Kidney (fatty acid β-oxidation; [3]): 0.97 ± 0.28 ID %/g
Biodistribution: Liver (fatty acid β-oxidation; [3]): 0.51 ± 0.16 ID %/g
Biodistribution: Lungs (fatty acid β-oxidation; [3]): 0.16 ± 0.02 ID %/g
Biodistribution: Muscle (fatty acid β-oxidation; [3]): 0.31 ± 0.06 ID %/g
Biodistribution: Spleen (fatty acid β-oxidation; [3]): 0.10 ± 0.04 ID %/g
Heart-to-Blood ratio (fatty acid β-oxidation; [3]): 41.25 ± 3.12
Heart-to-Liver ratio (fatty acid β-oxidation; [3]): 2.06 ± 0.41
Heart-to-Lungs ratio (fatty acid β-oxidation; [3]): 6.28 ± 0.29
Biodistribution: Large Intestine (fatty acid β-oxidation; [4]): 15.54 ± 6.05 % ID
Biodistribution: Small Intestine (fatty acid β-oxidation; [4]): 16.59 ± 4.32 % ID
Biodistribution: Stomach (fatty acid β-oxidation; [4]): 1.10 ± 0.19 % ID
precipitated ^99mTc radioactivity count as share of residual tissue granular phase ([2]; control SD rat heart, 60 min, dissolved in 1 mol/L NaOH 90° C. 1 h, 50% trichloroacetic acid added): 86.0%
% aqueous fraction [2, 5]: 0.29 ± 0.06%
% organic fraction [2, 5]: 73.11±2.03%
% residual tissue pellet [2, 5]: 26.60±2.09%
% aqueous fraction [2, 6]: 0.50 ± 0.21%
% organic fraction [2, 6]: 31.38±2.48%
% residual tissue pellet [2, 6]: 68.54±3.66% and 68.12 ± 2.69%
% aqueous fraction [2, 7]: 0.53 ± 0.23%
% organic fraction [2, 7]: 33.20 ± 4.56%
% residual tissue pellet [2, 7]: 66.27±34.54% and 66.27 ± 4.54%
% aqueous fraction [2, 8]: 0.54 ± 0.24%
% organic fraction [2, 8]: 38.76 ± 5.69%
% residual tissue pellet [2, 8]: 60.70±5.71%
% aqueous fraction [2, 9]: 1.68 ± 0.44%
% organic fraction [2, 9]: 32.77 ± 3.98%
% residual tissue pellet [2, 9]: 65.55±3.54%
% aqueous fraction [2, 10]: 0.66 ± 0.21%
% organic fraction [2, 10]: 35.30 ± 4.75%
% residual tissue pellet [2, 10]: 64.04±4.90%
% aqueous fraction [2, 11]: 0.85 ± 0.30%
% organic fraction [2, 11]: 31.92 ± 3.83%
% residual tissue pellet [2, 11]: 67.23 ± 4.08%
Compound: COC(C)(C)C[N+]#[C][99Tc-5]([C]#[N+]CC(C)(C)OC)([C]#[N+]CC(C)(C)OC)([C]#[N+]CC(C)(C)OC)([C]#[N+]CC(C)(C)OC)[C]#[N+]CC(C)(C)OCCCCCSCCCCC(=O)O [^99mTc complex 80]
decrease of absolute myocardial uptake, TMZ-administered vs control SD rats (fatty acid β-oxidation; 60 min post-injection, TMZ 40 mg/kg, P<0.01): 51%
sensitivity to myocardial fatty acid β-oxidation (fatty acid β-oxidation; TMZ blocking, female SD rats): quite sensitive
reduction of residual tissue granular phase proportion, TMZ-treated vs control heart samples ([2]; 60 min after injection, P<0.01): 61%
